Source: patent publication US6498246B1, “Glycosaminoglycan derivatives and processes for preparing same” (Seikagaku Corporation, priority 1998, dated 2002)
Where two headings read alike, the source gives them in different places.

What was measured:
mice = mice (males and females), cited from earlier work
blood plasma [1] = assay: Measurement of TT (thrombin time); type: biochemical, rat; conditions: for TT activity: concentration of standard heparin giving TT 100 seconds as percentage of that of the substance, standard heparin = 100; for TT activity/APTT activity: ratio of TT activity to APTT activity
Description: For the measurement of TT, 100 μl of the blood plasma and 100 μl of each sample having varied concentration were put into a measuring cup and incubated at 37° C. for 1 minute. Thereafter, 100 μl of thrombin (10 U/ml) incubated in advance at 37° C. was added thereto, and the period of time from this point until generation of coagulation was measured using the blood coagulation automatic measuring apparatus. In Table 2, the final concentration of each of the inventive substance and standard heparin in the medium, by which the TT value becomes 100 seconds, was obtained to calculate the concentration of the standard heparin as percentage based on the concentration of the inventive substance, and this value (%) was used as the TT activity of the inventive substance.

[2] = Anticoagulation activity of the standard heparin; conditions: property of the standard heparin preparation
blood plasma [3] = assay: Measurement of APTT (activated partial thromboplastin time); type: biochemical, rat; conditions: for APTT activity: concentration of standard heparin giving APTT 100 seconds as percentage of that of the substance, standard heparin = 100; for APTT (3 μg/ml): final concentration 3 μg/ml
Description: For the measurement of APTT, blood was collected from rat lower aorta by 3.2% citric acid {fraction (1/10 )} volume and centrifuged at 1,000×g for 10 minutes, and 100 μl of the thus obtained blood plasma and 100 μl of each sample having varied concentration were put into a measuring cup and incubated at 37° C. for 1 minute. Thereafter, 100 μl of Actin (trade name, Yoshitomi Pharmaceutical) which had been incubated in advance at 37° C. was added thereto, and the incubation was continued for 2 minutes. Next, 100 μl of 0.02 M CaCl2 solution which had been incubated in advance at 37° C. was added thereto, and the period of time from this point until generation of coagulation was measured using a blood coagulation automatic measuring apparatus (KC-10A: manufactured by Amelung). Also, in Table 2, the final concentration of each of the inventive substance and standard heparin in the medium, by which the APTT value becomes 100 seconds, was obtained to calculate the concentration of the standard heparin as percentage based on the concentration of the inventive substance, and this value (%) was used as the APTT activity of the inventive substance.

[4] = tested on: primary culture cells of Wistar rat cerebral cortex cells; assay: Measurement of neurite outgrowth promoting activity; type: cell-based; design: neurite outgrowth promoting activity (in words, FIG. 3): dose or concentration left out as unconfirmed; conditions: for Neurite outgrowth promoting activity: 10 μg/ml, ratio of cerebral cortex cell masses showing neurite outgrowth after 2 days of culturing
Description: A fetus was aseptically excised from a Wistar rat in the 17th day of pregnancy (purchased from Japan SLC). The brain was excised from the fetus, and the cerebral cortex was obtained by removing the cerebellum, mid-brain, inter-brain and meninges in an un-sulfated DMEM medium (prepared by dissolving 500 mg of anhydrous CaCl2, 0.25 mg of Fe(NO)3/9H2O, 1,000 mg of KCl, 193.3 mg of MgCl2, 9,250 mg of NaHCO3, 312.5 mg of NaH2PO4/H2O, 37.5 mg of Phenol Red, 275 mg of sodium pyruvate, 100 ml of MEM amino acid (No. 11130-051, manufactured by Gibco), 75 mg of L-glycine, 1,460 mg of L-glutamine, 105 mg of L-serine, 100 ml of MEM vitamin solution (No. 11120-052, manufactured by Gibco), 15,150 mg of NaCl and 11,250 mg of D-glucose in 2.5 L of sterilized distilled water and adjusting the solution to pH 7.2).
Cerebral cortexes obtained from 10 animals were finely sliced 100 times in both lengthwise and crosswise with a safety razor on a 60 mm dish, and the cerebral cortex slices were mixed twice with 10 ml of phosphate-buffered saline (PBS) and dispensed into a 50 ml capacity Falcon tube to which was subsequently added 11 ml of the un-sulfated DMEM medium. While uniformly suspending by gentle shaking, this was dispensed in 0.5 ml portions into wells of a 24 well plate (bottom area, 2 cm^2) which had been coated with 0.1% polyethylene imine. After 2 hours of the commencement of culturing, 100 μl of each sample was taken out, and 50 μl of PBS containing each substance to be tested having 10 time concentration of its final concentration and 50 μl of 400 μM chloric acid/un-sulfated DMEM medium were added. After 2 days of culturing at 37° C. under 5% CO2, 500 μl of 1% glutaraldehyde/PBS was gently over-layered to carry out 20 minutes of fixation at room temperature. After removing the supernatant by suction, 0.5 ml of PBS was slowly over-layered and then immediately removed by suction. A 20% Giemsa solution/potassium phosphate buffer was over-layered and allowed to stand for 2 hours at room temperature. After removing the supernatant by suction, 0.5 ml of PBS was added.

[5] = tested on: sialidase (homogenate of NSC-34 cells); assay: Measurement of sialidase activity with [3H]GM2 substrate; type: biochemical, mouse
Description: Into a 15 ml capacity glass tube, 1 mg of GM2 ganglioside (manufactured by IATRON) was put, and dissolved by adding 0.8 ml of distilled water, followed by sonication. To the resulting solution, 0.1 ml of PdCl2 solution (a supernatant fraction obtained by adding PdCl2 to distilled water to a concentration of 25 mg/ml, followed by sonication for 30 minutes, and then centrifuging the mixture at 2,000×g) was added, followed by stirring. […]
After the incubation, this was mixed with 5 ml of distilled water, applied to Sep-pak C18 cartridge column (manufactured by Waters) and eluted with methanol (3 ml) and then with chloroform : methanol (1:1 (v/v), 3 ml). The eluate was applied to DEAE-Sephadex A-25 column (manufactured by Pharmacia: 1 ml resin, swelled with methanol) and eluted with chloroform:methanol (1:1 (v/v), 3 ml), and then the eluate was dried to measure and compare radioactivity by a liquid scintillation counter. Radioactivity of a control in which 10 μl of distilled water was added instead of the standard heparin or inventive-substance was defined as 100% (FIG. 7). […]

NSC-34 cells = assay: Measurement of neural cell death inhibition activity; type: cell-based, mouse
Description: That is, culturing was carried out by adding 0.09 ml of serum-free DMEM medium containing 1×10^5 of NSC-34 cells (received from Dr. Cashman (Toronto University): a mouse motor neuron-derived cultured cell strain) to a 96 well multi-plate which had been treated with 0.1% polyethylene imine in advance. Two hours after culturing, 10 μl of 100, 1,000 or 10,000 μg/ml aqueous solution of the inventive substance was added to respective wells (the final concentration in the medium is 10, 100 or 1,000 μg/ml). Thereafter, culturing was continued for 46 hours, and the number of survived cells was measured by the MTT process using a hemocytometer. By comparing with the number of survived cells after 2 hours of the culturing, the number of dead cells after 48 hours of the culturing of a control in which the inventive substance was not added was defined as 100%, and the ratio of difference from the number of dead cells when the inventive substance was added (the number of cells rescued from the cell death) was calculated as percentage (FIG. 6).

Row | Substance | LD50 (mice; intravenous injection) | LD50 (mice; oral administration) | LD50 (mice; subcutaneous or intraperitoneal administration) | TT activity (blood plasma [1]) [%] | TT activity/APTT activity (blood plasma [1]) | anticoagulation activity [2] [IU/mg] | APTT activity (blood plasma [3]) [%] | APTT (3 μg/ml) (blood plasma [3]) [s] | Neurite outgrowth promoting activity [4] [%] | sialidase inhibition activity compared with standard heparin ([5]; 10 μl of 10 μg/ml aqueous solution, 37° C., 1 hour (FIG. 7)) | sialidase inhibition activity compared with NeuAc2en ([5]; 10 μl of 10, 100 or 1,000 μg/ml aqueous solution (FIG. 8)) | cells rescued from cell death (NSC-34 cells; 100 μg/ml aqueous solution added, NSC-34 cells) | activity to inhibit cell death and rescue the cells (NSC-34 cells; 100 and 1,000 μg/ml aqueous solution added, NSC-34 cells, 48 hours, MTT) | neurite outgrowth promoting activity in the survived cells (NSC-34 cells; survived NSC-34 cells) | neurite outgrowth promoting activity (in words, FIG. 3) [4]
1 | heparin | about 1,000 mg/kg | ≥ 5,000 mg/kg | ≥ 2,500 mg/kg |  |  |  |  |  |  |  |  |  |  |  | 
2 | heparin sodium salt [Standard heparin, reference compound] |  |  |  | 100 | 1 | 160 | 100 | 248 | 15.0 |  |  |  |  |  | 
3 | selectively 2-O-desulfated periodic acid oxidation-reduction heparin [Inventive substance] |  |  |  | 0.37 | 0.185 |  | 2 | 32 | 29.7 | stronger activity to inhibit sialidase which degrades ganglioside than the standard heparin | stronger sialidase inhibition activity than that of NeuAc2en | about half the number of cells is rescued from cell death | markedly inhibit cell death | neurite outgrowth promoting activity was observed | sharp increase in the neurite outgrowth promoting activity
